Data reported in PubChem BioAssay AID248 (DTP/NCI, 2004).
“And” between values parts separate entries of the source, which are not always exact repeats. Identical values can stand only once. Toxic doses and inconclusive results are not listed. Cut-off read from the data, not from the text of the source: active = T/C of 150% or more; inactive = T/C below 125%.

System: L1210 leukemia ip in BDF1 mice, survival T/C
Assay: NCI In Vivo Anticancer Drug Screen. Data for tumor model L1210 Leukemia (intraperitoneal) in B6D2F1 (BDF1) mice
Settings: endpoint: mean survival time, higher = longer survival
Procedure, shortened: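 Tumor was transplanted into mice, which were then dosed with test compound or vehicle alone. Survival was recorded for each group, and the treated figure was expressed relative to the control figure.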

[1] = dose: 100.0 mg/kg/injection, schedule: Q01DX009 (ip), vehicle: saline
[2] = dose: 100.0 mg/kg/injection, schedule: Q04DX003 (ip), vehicle: saline
[3] = dose: 200.0 mg/kg/injection, schedule: Q04DX003 (ip), vehicle: saline
[4] = dose: 100.0 mg/kg/injection, schedule: Q01DX009 (ip), vehicle: Klucel (hydroxypropylcellulose) (HPC)
[5] = dose: 100.0 mg/kg/injection, schedule: Q01DX009 (ip), vehicle: saline with Tween-80
[6] = dose: 100.0 mg/kg/injection, schedule: Q04DX003 (ip), vehicle: saline with Tween-80
[7] = dose: 200.0 mg/kg/injection, schedule: Q01DX009 (ip), vehicle: Klucel (hydroxypropylcellulose) (HPC)
[8] = dose: 200.0 mg/kg/injection, schedule: Q01DX009 (ip), vehicle: saline with Tween-80
[9] = dose: 200.0 mg/kg/injection, schedule: Q04DX003 (ip), vehicle: saline with Tween-80
[10] = dose: 400.0 mg/kg/injection, schedule: Q01DX009 (ip), vehicle: Klucel (hydroxypropylcellulose) (HPC)
[11] = dose: 400.0 mg/kg/injection, schedule: Q01DX009 (ip), vehicle: saline with Tween-80
[12] = dose: 400.0 mg/kg/injection, schedule: Q04DX003 (ip), vehicle: saline with Tween-80
[13] = dose: 100.0 mg/kg/injection, schedule: Q04DX003 (ip), vehicle: acetone
[14] = dose: 400.0 mg/kg/injection, schedule: Q04DX003 (ip), vehicle: acetone
[15] = dose: 100.0 mg/kg/injection, schedule: Q01DX001 (ip), vehicle: saline
[16] = dose: 200.0 mg/kg/injection, schedule: Q01DX001 (ip), vehicle: saline
[17] = dose: 400.0 mg/kg/injection, schedule: Q01DX001 (ip), vehicle: saline
[18] = dose: 200.0 mg/kg/injection, schedule: Q01DX001 (ip), vehicle: carboxymethylcellulose (CMC)
[19] = dose: 400.0 mg/kg/injection, schedule: Q01DX001 (ip), vehicle: carboxymethylcellulose (CMC)
[20] = dose: 5.0 mg/kg/injection, schedule: Q01DX001 (ip), vehicle: saline
[21] = dose: 20.0 mg/kg/injection, schedule: Q01DX001 (ip), vehicle: saline
[22] = dose: 40.0 mg/kg/injection, schedule: Q01DX001 (ip), vehicle: saline
[23] = dose: 80.0 mg/kg/injection, schedule: Q01DX001 (ip), vehicle: saline
[24] = dose: 6.25 mg/kg/injection, schedule: Q01DX009 (ip), vehicle: saline with Tween-80
[25] = dose: 12.5 mg/kg/injection, schedule: Q01DX009 (ip), vehicle: saline with Tween-80

Measured: T/C

CCOC(=O)CNCc1ccc(F)cc1
inactive: [1] 105 % of control | [2] 104 % of control | dose: 200.0 mg/kg/injection, schedule: Q01DX009 (ip), vehicle: saline 103 % of control | [3] 110 % of control | dose: 400.0 mg/kg/injection, schedule: Q01DX009 (ip), vehicle: saline 88 % of control | dose: 400.0 mg/kg/injection, schedule: Q04DX003 (ip), vehicle: saline 100 % of control

Brc1cnc(OCc2ccccc2)nc1OCc1ccccc1
inactive: [4] 91 % of control | [5] 103 % of control | dose: 100.0 mg/kg/injection, schedule: Q04DX003 (ip), vehicle: Klucel (hydroxypropylcellulose) (HPC) 96 % of control | [6] 103 % of control | [7] 102 % of control | [8] 102 % of control | dose: 200.0 mg/kg/injection, schedule: Q04DX003 (ip), vehicle: Klucel (hydroxypropylcellulose) (HPC) 100 % of control | [9] 97 % of control | [10] 104 % of control | [11] 101 % of control | dose: 400.0 mg/kg/injection, schedule: Q04DX003 (ip), vehicle: Klucel (hydroxypropylcellulose) (HPC) 93 % of control | [12] 92 % of control

NC(=O)Nc1cccc2c1-c1ccccc1C2=O
inactive: [13] 88 % of control | [14] 100 % of control

Cc1c(Cl)c(Cl)cc([N+](=O)[O-])c1Cl
inactive: dose: 66.0 mg/kg/injection, schedule: Q01DX009 (sc), vehicle: olive oil, sesame oil, peanut oil 100 % of control | dose: 100.0 mg/kg/injection, schedule: Q01DX009 (sc), vehicle: olive oil, sesame oil, peanut oil 98 % of control | dose: 100.0 mg/kg/injection, schedule: Q04DX003 (sc), vehicle: olive oil, sesame oil, peanut oil 105 % of control | dose: 150.0 mg/kg/injection, schedule: Q01DX009 (sc), vehicle: olive oil, sesame oil, peanut oil 102 % of control | dose: 200.0 mg/kg/injection, schedule: Q01DX009 (sc), vehicle: olive oil, sesame oil, peanut oil 94 % of control | dose: 200.0 mg/kg/injection, schedule: Q04DX003 (sc), vehicle: olive oil, sesame oil, peanut oil 106 % of control | dose: 400.0 mg/kg/injection, schedule: Q01DX009 (sc), vehicle: olive oil, sesame oil, peanut oil 105 % of control | dose: 400.0 mg/kg/injection, schedule: Q04DX003 (sc), vehicle: olive oil, sesame oil, peanut oil 97 % of control

CC(=O)C1(C)C(=O)N(c2ccc(C)cc2)C(=O)N1c1ccc(C)cc1 (configuration not stated)
inactive: [15] 104 % of control | [16] 102 % of control | [17] 102 % of control

COC(=O)C(Br)C(OC)c1ccccc1 (configuration not stated)
inactive: [4] 96 % of control | [7] 96 % of control | [10] 98 % of control

NN1CCCC1
inactive: dose: 50.0 mg/kg/injection, schedule: Q01DX009 (ip), vehicle: saline 98 % of control | [1] 96 % of control | [2] 99 % of control | [3] 96 % of control

O=C(O)c1cc([N+](=O)[O-])ccc1Nc1cccc2ccccc12
inactive: [2] 90 % of control | [3] 97 % of control

Nc1ccc([N+](=O)[O-])c2ccccc12
inactive: dose: 50.0 mg/kg/injection, schedule: Q01DX001 (ip), vehicle: carboxymethylcellulose (CMC) 87 % of control | dose: 100.0 mg/kg/injection, schedule: Q01DX001 (ip), vehicle: carboxymethylcellulose (CMC) 93 % of control | [18] 98 % of control | [19] 87 % of control

Cc1c(NC(=O)Nc2cccc(F)c2)c(=O)n(-c2ccccc2)n1C
inactive: [5] 101 % of control | [6] 104 % of control | [8] 98 % of control | [9] 104 % of control | [11] 98 % of control | [12] 101 % of control

CN1CCN(CCSC(=O)C(O)(c2ccccc2)C2CCCC2)CC1 (configuration not stated)
inactive: dose: 150.0 mg/kg/injection, schedule: Q01DX001 (ip), vehicle: saline 102 % of control

CCCCCCCC(=O)Nc1ccc(F)cc1
inactive: [13] 95 % of control | dose: 200.0 mg/kg/injection, schedule: Q04DX003 (ip), vehicle: acetone 95 % of control | [14] 90 % of control

Cc1c(CCO)sc[n+]1Cc1ccccc1[N+](=O)[O-]
inactive: [20] 102 % of control | dose: 10.0 mg/kg/injection, schedule: Q01DX001 (ip), vehicle: saline 100 % of control | [21] 102 % of control | [22] 105 % of control | [23] 98 % of control | [15] 93 % of control

Cc1ccc(C(=O)Cc2ccc(C#N)cc2)cc1
inactive: dose: 50.0 mg/kg/injection, schedule: Q01DX001 (ip), vehicle: saline 98 % of control | [15] 96 % of control | [16] 104 % of control | [17] 98 % of control

CCOC(=O)c1ccc(NC(=S)Nc2ccc(C(=O)OCC)cc2)cc1
inactive: [5] 95 % of control | [6] 89 % of control | [8] 93 % of control | [9] 87 % of control | [11] 95 % of control | [12] 94 % of control

c1ccc(-c2csnn2)cc1
inactive: [18] 91 % of control | [19] 115 % of control

c1ccc2c(c1)ccc1nc3ccc4ccccc4c3cc12
inactive: [20] 86 % of control | [21] 97 % of control | [22] 95 % of control | [23] 97 % of control

O=CNc1ccccc1Cc1ccccc1
inactive: [15] 101 % of control | [16] 107 % of control

CCOC(=O)c1ccc(NC(=O)Oc2cc(C)ccc2C(C)C)cc1
inactive: [4] 94 % of control | [7] 94 % of control | [10] 94 % of control

NC(=O)C(=Cc1ccc([N+](=O)[O-])s1)C(N)=O
inactive: dose: 100.0 mg/kg/injection, schedule: Q04DX002 (ip), vehicle: Klucel (hydroxypropylcellulose) (HPC) 107 % of control | dose: 200.0 mg/kg/injection, schedule: Q04DX002 (ip), vehicle: Klucel (hydroxypropylcellulose) (HPC) 112 % of control

OC(CN1CCCCC1)c1ccc(/C=C/c2ccc(Cl)cc2)cc1 (configuration not stated)
inactive: [24] 101 % of control | dose: 6.25 mg/kg/injection, schedule: Q04DX003 (ip), vehicle: saline with Tween-80 93 % of control | [25] 93 % of control | dose: 12.5 mg/kg/injection, schedule: Q04DX003 (ip), vehicle: saline with Tween-80 88 % of control | dose: 25.0 mg/kg/injection, schedule: Q04DX003 (ip), vehicle: saline with Tween-80 98 % of control and 87 % of control | dose: 100.0 mg/kg/injection, schedule: Q01DX001 (ip), vehicle: saline with Tween-80 88 % of control

N#CSC/C(Br)=C/Br
inactive: [24] 99 % of control | [25] 96 % of control | dose: 25.0 mg/kg/injection, schedule: Q01DX009 (ip), vehicle: saline with Tween-80 96 % of control
